{"source": "patent US11327083B2", "about": "“Treatment and differential diagnosis of Cushing's disease and ectopic Cushing's syndrome” (Corcept Therapeutics, Inc., priority 2016, dated 2022)", "key": {"[1]": {"test_system": "patients having Ectopic Cushing's Syndrome", "experiment": "Mean plasma cortisol to ACTH (C:A) ratio during mifepristone treatment, patients having Ectopic Cushing's Syndrome", "format": "in vivo, human", "description": "(§1) Two groups of patients, which have been previously diagnosed as having Cushing's Disease, Ectopic Cushing's Syndrome using other methods, were enrolled in the study. The investigators were blind to the patients' diagnoses. Blood samples were obtained from each patient within 6 weeks prior to the enrollment in the study (“Day 1” samples). The patients were treated with mifepristone at a starting dose 300 mg daily, increased up to 1200 mg or 20 mg/kg over a period of 10 weeks. The mifepristone treatment continued for a total period of 24 weeks. Blood samples were taken during the course of the treatment, i.e., at the end of 14 days, and 6, 10, 16 and 24 weeks from the initial dose of mifepristone was given. All samples were taken at between 8-10 am on the day of the study. The ACTH levels and the cortisol levels of the plasma produced from the blood samples collected above were assayed using two-site immunometric assays (Mayo Clinic, Test ID ACTH) following the manufacturer's instructions."}, "[2]": {"test_system": "patients having Cushing's Disease", "experiment": "Mean plasma cortisol to ACTH (C:A) ratio during mifepristone treatment, patients having Cushing's Disease", "format": "in vivo, human", "description": "as §1"}, "[3]": {"settings": "Ectopic patients (n = 3), plasma, 8-10 am, mifepristone 300 mg daily increased up to 1200 mg or 20 mg/kg, Day 1 baseline mean 18.552"}, "[4]": {"settings": "CD patients (n = 38), plasma, 8-10 am, mifepristone 300 mg daily increased up to 1200 mg or 20 mg/kg, Day 1 baseline mean 3.018"}}, "data": [{"smiles": "CC#C[C@]1(O)CC[C@H]2[C@@H]3CCC4=CC(=O)CCC4=C3[C@@H](c3ccc(N(C)C)cc3)C[C@@]21C", "note": "[mifepristone, 17-β-hydrox-11-β-(4-dimethyl-aminophenyl)17-α-(1-propynyl)estra-4,9-dien-3-one]", "values": [{"measurement": "mean GRA-exposed C:A ratio as % of the baseline ratio", "setting": "[1]; Ectopic Cushing's Syndrome patients, end of 24 weeks treatment", "value": 11.6, "unit": "%"}, {"measurement": "mean GRA-exposed C:A ratio as % of the mean baseline ratio", "setting": "[1]; Ectopic Cushing's Syndrome patients, end of the six weeks' treatment", "value": "less than 50%"}, {"measurement": "mean ratio of cortisol to ACTH, Week 6", "setting": "[1]; [3]", "value": 9.241}, {"measurement": "mean ratio of cortisol to ACTH, Week 10", "setting": "[1]; [3]", "value": 6.722}, {"measurement": "mean ratio of cortisol to ACTH, Week 16", "setting": "[1]; [3]", "value": 0.600}, {"measurement": "mean ratio of cortisol to ACTH, Week 24/ET", "setting": "[1]; [3]", "value": 2.154}, {"measurement": "mean ratio of cortisol to ACTH, Week 16", "setting": "[2]; CD patients (n = 32), plasma, 8-10 am, mifepristone 300 mg daily increased up to 1200 mg or 20 mg/kg, Day 1 baseline mean 3.018", "value": 5.788}, {"measurement": "mean ratio of cortisol to ACTH, Week 10", "setting": "[2]; CD patients (n = 33), plasma, 8-10 am, mifepristone 300 mg daily increased up to 1200 mg or 20 mg/kg, Day 1 baseline mean 3.018", "value": 6.852}, {"measurement": "mean ratio of cortisol to ACTH, Week 6", "setting": "[2]; [4]", "value": 3.396}, {"measurement": "mean ratio of cortisol to ACTH, Week 24/ET", "setting": "[2]; [4]", "value": 4.999}, {"measurement": "mean GRA-exposed C:A ratio relative to the mean baseline C:A ratio (peak)", "setting": "[2]; Cushing's Disease patients, peak at the end of 10 weeks of mifepristone treatment", "value": "more than 2 fold"}]}]}
